The text below walks through data of US12439914B2, “Bactrocera oleae attractant composition and uses thereof” (CEARITIS, priority 2020, dated 2025).

This test relates to Bactrocera oleae. The test is described as follows: Attractiveness in glass Y-tube olfactometer (behavioural response of the olive fruit fly). The settings on record: 10 ng on filter paper vs dichloromethane control; individual female flies 8 to 30 days old; Y-tube choice. The test is classed as in vivo. The protocol:
The attractiveness of the active substances of the attractant composition according to the invention was evaluated using a glass Y-tube olfactometer (internal diameter 4.5 cm; length of the arm 22 cm; length of the main stem 24.5 cm). The assembly was placed in a lit room at 22° C. Screws held the Y-tube in an inclined position (angle of […] between the Y-tube and the horizontal plane). The Y-tube was placed in the centre of an artificially lit box (60×60×60 cm), covered with sheets on the outside in order to avoid external stimuli. The tubes at the end of the Y were connected to two glass adaptors, to which 30 ml glass flasks were attached, each containing a 1 cm^2 piece of filter paper. […]
Individual female flies—from 8 to 30 days old—were released one by one into the first cm of the base tube of the olfactometer using a manual aspirator. […] The air suction tube was connected to the glass Y-tube and the time until the flies reached the end of one of the arms of the Y was recorded. […]
In order to evaluate the attractiveness of one molecule vis-à-vis Bactrocera oleae, the data collected were analyzed with a khi2 statistical test on Excel and R. The p value, obtained in this test, indicates the probability of obtaining the same value if the null hypothesis was true. […]

In the case of `C=C1CC/C=C(\C)CC[C@@H]2[C@@H]1CC2(C)C` [Beta-caryophyllene, beta-caryophyllene], the “Behavioural response obtained using the substance tested (expressed in %)” value worked out at 70.00%.
The result for `CCCCCCCCCC=O` [Decanal, decanal] reads 68.00%.
